IC50 data for 3 molecules are collected here from ChEMBL document CHEMBL1121735, “Synthesis and adrenoceptor affinity of some highly polar beta-substituted catecholamines” (J Med Chem, 1981).

In assay [1] the target is Adrenergic receptor alpha. Put plainly: Binding affinity against Alpha adrenergic receptor using [3H]dihydroergocryptine radioligand in rat brain homogenate. It is filed as tissue-based.
Another assay concerns the target Adrenergic receptor beta (Rattus norvegicus, UniProt P18090+P10608+P26255). As to the kind of experiment: Binding affinity against Beta adrenergic receptor using [3H]dihydroalprenolol radioligand in rat brain homogenate. It is filed as tissue-based.

In the case of `CC(C)NCC(c1ccc(O)c(O)c1)S(=O)(=O)O` (racemic), the IC50 in assay [1] was found to be 0.000033 M l-1; on Adrenergic receptor beta it was 9.1e-6 M l-1.

Turning to `CNCC(c1ccc(O)c(O)c1)S(=O)(=O)O` (racemic), the IC50 in assay [1] amounted to 0.00001 M l-1; at Adrenergic receptor beta, 0.00011 M l-1.

In the case of `NCC(c1ccc(O)c(O)c1)S(=O)(=O)O` (racemic), the IC50 is 3.6e-6 M l-1 in assay [1] and 0.00013 M l-1 at Adrenergic receptor beta.
